Experiments:
Assay type in all cases: in vivo
Nilaparvata lugens = experiment: Test Example 8: Mortality Test for Nilaparvata lugens; settings: 144 h, drug solution 500 ppm, Oryza sativa leaf sheath immersed, 2 instar larvae, after 6 days
Method: (§1) A 10% emulsifiable concentrate of the compound of the present invention (depending on the type of the compound, a 10% wettable powder was subjected to the test) was diluted with water containing a spreader to prepare a drug solution in a concentration of 500 ppm. In this drug solution, a leaf sheath of Oryza sativa was immersed for about 10 seconds and was air-dried and then put into a test tube. In the test tube, five 2 instar larvae of Nilaparvata lugens per test tube were released and the test tube was capped with a sponge and stored in a thermostat room of 25° C. The number of killed larvae after 6 days was measured and the mortality was calculated from the same calculation formula as that in Test Example 1. Here, the test was carried out with two replications.

Bemisia argentifolii = experiment: Test Example 9: Mortality Test for Bemisia argentifolii; settings: in Solanum lycopersicum, 144 h
Method: (§2) In a styrol cup having an inner diameter of 7 cm, a wet filtration paper was laid, and on the paper, a cut-out leaf of tomato on which Bemisia argentifolii laid eggs (10 eggs/leaf) was laid. A 10% emulsifiable concentrate of the compound of the present invention (depending on the type of the compound, a 10% wettable powder was subjected to the test) was diluted with water containing a spreader to prepare a drug solution in a concentration of 500 ppm. The drug solution was dusted using a rotary dusting tower in an amount of 2.5 mL per styrol cup and the cup was capped and stored in a thermostat room of 25° C. The number of killed larvae after 6 days was measured and the mortality was calculated from the same calculation formula as that in Test Example 1. Here, the test was carried out with two replications.

Myzus persicae = experiment: Test Example 10: Mortality Test for Myzus persicae; settings: 144 h
Method: In a glass petri dish having an inner diameter of 3 cm, a wet absorbent cotton was laid, and on the cotton, a leaf of canarium album cut out so as to have the same diameter as the inner diameter of the petri dish was laid, followed by releasing 4 apterous imagines of Myzus persicae on the leaf. After one day, 10% emulsifiable concentrate of the compound of the present invention (depending on the type of the compound, a 10% wettable powder was subjected to the test) was diluted with water containing a spreader to prepare a drug solution in a concentration of 500 ppm. The drug solution was dusted using a rotary dusting tower (2.5 mg/cm^2) and the petri dish was capped and stored in a thermostat room of 25° C. The number of killed imagines after 6 days was measured and the mortality was calculated from the same calculation formula as that in Test Example 1. Here, the test was carried out with two replications.

Ctenocephalides felis = experiment: Test Example 15: Mortality Test for Cat Flea; settings: 96 h
Method: To the bottom surface and the side surface of a petri dish having an inner diameter of 5.3 cm, 400 μL of an acetone solution in which 40 mg of the compound of the present invention was dissolved in 40 mL of acetone (concentration: 1,000 ppm) was applied and the acetone was volatilized to form a thin film of the compound of the present invention on the inner wall of the petri dish. The inner wall of the used petri dish has an area of 40 cm^2, so that the amount of the applied drug is 1 μg/cm^2. In the petri dish, 10 Ctenocephalides felis imagines (male and female were mixed) were released and the petri dish was capped and stored in a thermostat room of 25° C. The number of killed larvae after 4 days was measured and the mortality was calculated from the same calculation formula as that in Test Example 1. Here, the test was carried out on the single sample.

[1] = test system: American dog ticks (Dermacentor variabilis); experiment: Test Example 16: Mortality Test for American Dog Tick; settings: 96 h, thin film in petri dishes, 0.1 μg/cm^2 (acetone solution 100 ppm), protonymphs, after 4 days
Method: To the bottom surfaces and the side surfaces of two petri dishes having an inner diameter of 5.3 cm, 400 μL of an acetone solution in which 4 mg of a compound of the present invention was dissolved in 40 mL of acetone (concentration: 100 ppm) was applied and the acetone was volatilized to form a thin film of the compound of the present invention on the inner walls of the petri dishes. The inner wall of the used petri dish has an area of 40 cm^2, so that the amount of the applied drug is 0.1 μg/cm^2. In one petri dish, 10 American dog ticks (Dermacentor variabilis) protonymphs (male and female were mixed) were released and the petri dish was capped with the other petri dish. The seam part of the two petri dishes was sealed with a tape so that the protonymphs could not flee and the two petri dishes were stored in a thermostat room of 25° C. The number of killed protonymphes after 4 days was measured and the mortality was calculated from the same calculation formula as that in Test Example 1. Here, the test was carried out on the single sample.

Spodoptera litura = experiment: Test Example 2: Mortality Test for Spodoptera litura; settings: 144 h
Method: A 10% emulsifiable concentrate of the compound of the present invention (depending on the type of the compound, a 10% wettable powder was subjected to the test) was diluted with water containing a spreader to prepare a drug solution in a concentration of 10 ppm. In this drug solution, a leaf of canarium album was immersed for about 10 seconds and was air-dried and then put into a petri dish. In the petri dish, five 2 instar larvae of Spodoptera litura per petri dish were released and the petri dish was capped and stored in a thermostat room of 25° C. The number of killed larvae after 6 days was measured and the mortality was calculated from the same calculation formula as that in Test Example 1. Here, the test was carried out with two replications.

[2] = test system: Frankliniella occidentalis; experiment: Test Example 5: Mortality Test for Frankliniella occidentalis; settings: 48 h
Method: as §2, with “a” for “a cut-out”, “kidney bean cut out so as to have the same diameter as the inner diameter of the cup” for “tomato on which Bemisia argentifolii laid eggs (10 eggs/leaf)”, “laid, followed by inoculating ten 1 instar larvae of Frankliniella occidentalis per leaf to the leaf.” for “laid.”, “2” for “6”

Eysarcoris lewisi = experiment: Test Example 7: Mortality Test for Eysarcoris lewisi; settings: in Oryza sativa, 48 h
Method: as §1, with “five 1” for “five 2”, “of Eysarcoris lewisi” for “of Nilaparvata lugens”, “per one” for “per”, “after 2” for “after 6”

Cc1cc(C2=NOC(c3cc(Cl)cc(Cl)c3)(C(F)(F)F)C2)ccc1C(=O)NC1(c2ccccn2)CC1 (centres unmarked) [No. 1-007, 4-[5-(3,5-Dichlorophenyl)-5-trifluoromethyl-4,5-dihydroisoxazole-3-yl]-2-methyl-N-[1-(2-pyridyl)cyclopropyl]benzamide]
≥ 80%: mortality at 500 ppm (Nilaparvata lugens) | mortality at 500 ppm (Bemisia argentifolii) | mortality at 500 ppm (Myzus persicae) | mortality at 1000 ppm, 1 µg/cm2 (Ctenocephalides felis) | mortality at 100 ppm, 0.1 µg/cm2 [1] | mortality at 10 ppm (Spodoptera litura) | mortality at 500 ppm [2] | mortality at 500 ppm (Eysarcoris lewisi)
